Values joined by “and” are separate entries in the source; they are usually repeats but may differ in a detail not shown here. Equal values may be shown once.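 Step 1: Grow cells in 96-well plates. Step 2: Expose to compound for 48 hours at 5 concentrations. Step 3: Interpolate endpoints linearly; if unreached, use highest concentration. GI50 marks 50% less growth. At the TGI there is no net growth.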
How the values were obtained:
Assay in all cases: inhibition of tumour cell growth, NCI panel, 48 h
K-562 leukemia = tested on: K-562 leukemia
MDA-MB-435 = tested on: MDA-MB-435
OVCAR-3 ovarian = tested on: OVCAR-3 ovarian
HCT-116 colon = tested on: HCT-116 colon
A498 renal = tested on: A498 renal
OVCAR-8 ovarian = tested on: OVCAR-8 ovarian
MCF7 breast = tested on: MCF7 breast
MALME-3M melanoma = tested on: MALME-3M melanoma
MOLT-4 leukemia = tested on: MOLT-4 leukemia
OVCAR-5 ovarian = tested on: OVCAR-5 ovarian
DMS 114 small cell lung = tested on: DMS 114 small cell lung
KM20L2 colon = tested on: KM20L2 colon

Row | SMILES | TGI (K-562 leukemia) | TGI (MDA-MB-435) | TGI (OVCAR-3 ovarian) | TGI (HCT-116 colon) | TGI (A498 renal) | TGI (OVCAR-8 ovarian) | TGI (MCF7 breast) | TGI (MALME-3M melanoma) | TGI (MOLT-4 leukemia) | TGI (OVCAR-5 ovarian) | TGI (DMS 114 small cell lung) | TGI (KM20L2 colon) | GI50 (K-562 leukemia) | GI50 (MOLT-4 leukemia) | GI50 (MDA-MB-435) | GI50 (A498 renal) | GI50 (OVCAR-8 ovarian) | GI50 (KM20L2 colon)
1 | COc1ccc2nc(-c3ccccc3)cc(OCC(=O)O)c2c1 | > 100 µM | > 100 µM | > 100 µM | > 100 µM | > 100 µM | > 100 µM | > 100 µM | > 100 µM | > 100 µM | > 100 µM | – | – | – | – | – | – | – | –
2 | CS(=O)(=O)OCCN(CCOS(C)(=O)=O)c1ccc(C=Nc2cccc(Cl)c2)cc1 | > 100 µM | 30.3 µM | 51.8 µM | > 100 µM | 13.8 µM | > 100 µM | > 100 µM | 33.2 µM | 1.31 µM | 17.7 µM | – | – | – | – | – | – | – | –
3 | O=c1cc(CO)oc2c3c(cc(O)c12)OCC(COC1OC(CO)C(O)C(O)C1O)=CC3 (stereo not drawn) | > 100 µM | – | > 100 µM | > 100 µM | > 100 µM | > 100 µM | – | – | > 100 µM | > 100 µM | > 100 µM | > 100 µM | – | – | – | – | – | –
4 | C=C(C(=O)O)[C@@H]1C[C@@H]2O[C@H]1[C@@H](O)[C@@H](C)CCCC(C)=CCC[C@@]2(C)O | > 100 µM | > 100 µM | > 100 µM | > 100 µM | > 100 µM | > 100 µM | > 100 µM | > 100 µM | > 100 µM | > 100 µM | – | – | 32.3 µM and 83.5 µM | 27.2 µM and 56.9 µM | – | – | – | –
5 | Nc1nc(Cl)c(N)c(NCC2(CO)CC2)n1 | > 100 µM | > 100 µM | > 100 µM | > 100 µM | > 100 µM | > 100 µM | > 100 µM | > 100 µM | > 100 µM | > 100 µM | – | – | – | – | – | – | – | –
6 | COc1cc(C(C)O)c(S(=O)(=O)CC(C)O)nn1 (stereo not drawn) | > 100 µM | > 100 µM | > 100 µM | > 100 µM | > 100 µM | > 100 µM | > 100 µM | > 100 µM | > 100 µM | > 100 µM | – | – | – | – | – | – | – | –
7 | O=C1c2cc(Cl)ccc2NC(=NC2CCCC2)C2CSCN12 (stereo not drawn) | > 100 µM | > 100 µM | > 100 µM | > 100 µM | > 100 µM | > 100 µM | > 100 µM | > 100 µM | > 100 µM | > 100 µM | – | – | – | – | – | – | – | –
8 | CN(C(=O)Cc1ccccc1)n1cnn(CC(=O)OC(C)(C)C)c1=S | > 10 µM | > 10 µM | > 10 µM | > 10 µM | > 10 µM | > 10 µM | > 10 µM | > 10 µM | > 10 µM | > 10 µM | – | – | – | – | – | – | – | –
9 | Brc1ccc(C[P+]2(c3ccccc3)CCCCC2)cc1 | > 100 µM | – | > 100 µM | > 100 µM | > 100 µM | > 100 µM | – | > 100 µM | > 100 µM | > 100 µM | > 100 µM | > 100 µM | – | – | – | – | – | –
10 | NC(=S)/N=C(/c1nc2ccc(Cl)cc2[nH]c1=O)C(O)c1ccccc1Cl (stereo not drawn) | > 100 µM | – | – | – | > 100 µM | > 100 µM | – | > 100 µM | > 100 µM | > 100 µM | > 100 µM | > 100 µM | – | – | – | – | – | –
11 | Cc1ccc2c(c1)C(=O)c1nc(C)ccc1C2=O | > 100 µM | 44 µM | > 100 µM | 60.6 µM | > 100 µM | 97.5 µM | > 100 µM | 24.7 µM | > 100 µM | > 100 µM | – | – | – | – | – | – | – | –
12 | Cc1ccc(NC=O)c(-c2c(N)[nH]c(=S)[nH]c2=O)c1 | > 100 µM | > 100 µM | > 100 µM | > 100 µM | > 100 µM | > 100 µM | > 100 µM | > 100 µM | > 100 µM | > 100 µM | – | – | – | – | – | – | – | –
13 | Cc1ccc(SC2C(=O)C3CC(OCc4ccccc4)C2(C)C3(C)C)cc1 (stereo not drawn) | > 100 µM | > 100 µM | > 100 µM | > 100 µM | > 100 µM | > 100 µM | > 100 µM | > 100 µM | > 100 µM | > 100 µM | – | – | – | – | – | – | – | –
14 | O=C1/C(=C\c2cccc(Oc3ccccc3)c2)SC(c2ccccc2)N1c1ccccc1 (stereo not drawn) | > 100 µM | > 100 µM | > 100 µM | > 100 µM | > 100 µM | > 100 µM | > 100 µM | > 100 µM | > 100 µM | > 100 µM | – | – | – | – | – | – | – | –
15 | CN(Cc1cnc2nc(N)nc(N)c2n1)c1ccc(C(=O)N[C@@H](CCC(=O)O)C(=O)O)cc1 | 206 µM and > 250 µM | > 250 µM | 217 µM and > 250 µM | – | 116 µM | > 250 µM | > 250 µM | > 250 µM | 159 µM | 207 µM and > 250 µM | 191 µM | > 250 µM | – | 0.0278 µM | 0.0672 µM and 0.0441 µM | 1.05 µM | 0.0703 µM and 0.488 µM | 0.0025 µM
16 | CCOC(=O)c1c(N=P(c2ccccc2)(c2ccccc2)c2ccccc2)nnc(-c2ccccc2)c1-c1ccccc1 | > 100 µM | > 100 µM | > 100 µM | > 100 µM | 99.3 µM | > 100 µM | > 100 µM | > 100 µM | > 100 µM | > 100 µM | – | – | – | – | – | – | – | –
17 | CCOc1ccc2[nH]c3c(C)c4ccncc4c(C)c3c2c1 | > 100 µM | – | 17.7 µM | 1.78 µM | 3.2 µM | – | – | 2.83 µM | – | 2.93 µM | 3.01 µM | 2.56 µM | – | – | – | – | – | –
